Measured values published in patent publication US20230270753A1, “COMBINATIONS OF GABAA ALPHA 5 AGONISTS AND SV2A INHIBITORS AND METHODS OF USING IN THE TREATMENT OF COGNITIVE IMPAIRMENT” (AGENEBIO, INC., priority 2020, published 2023).
“Also recorded” adds a separate entry of the source. Where two headings read alike, the source gives them in different places.

What was measured:
[1] = Dynamic vapor sorption (DVS); type: physicochemical; conditions: for hygroscopicity class: DVS isotherm; for form of the material recovered from the DVS experiment by XRPD: post DVS
Procedure: Dynamic vapor sorption data was collected on a Surface Measurement System DVS Intrinsic instrument. The samples were not dried prior to analysis. Sorption and desorption data were collected over a range from 5% to 95% RH in 10% RH increments under a nitrogen purge. The equilibrium criteria used for the analyses were 0.001 dm/dt weight change in 5 minutes with a minimum step time of 30 minutes and maximum equilibration time of 180 minutes with a 3-minute data logging interval. Data were not corrected for the initial moisture content of the sample. The samples were identified as having low, limited or significant hygroscopicity based on the definitions in the below table.

[2] = type: physicochemical; conditions: solvent-mediated slurries, ambient temperature (Form E also 55° C. and 77° C.)
Procedure: Interconversion experiments were performed to identify the most thermodynamically stable anhydrous form of Compound 1 (Table 19). […] The choice of solvent affects the kinetics of polymorph conversion and not the thermodynamic relationship between polymorphic forms.
Various combinations of Forms B, E, F, and Material D were slurried with Form A at ambient and elevated temperatures (for experiments involving Form E). Different solvent systems were used and included a variety of water activities. Saturated solutions were generated and then added to the mixtures composed of approximately equivalent quantities of the forms. The mixtures were slurried for a particular duration of time and the solids harvested and analyzed by XRPD.

[3] = Differential scanning calorimetry / thermogravimetry; type: physicochemical; conditions: DSC 10° C./min
Procedure: DSC was performed using a Mettler-Toledo DSC3+ differential scanning calorimeter. A tau lag adjustment is performed with indium, tin, and zinc. The temperature and enthalpy are adjusted with octane, phenyl salicylate, indium, tin and zinc. The adjustment is then verified with octane, phenyl salicylate, indium, tin, and zinc. The sample was placed into a hermetically sealed aluminum DSC pan, the weight was accurately recorded, and the sample was inserted into the DSC cell. A weighed aluminum pan configured as the sample pan was placed on the reference side of the cell. The pan lid was pierced prior to sample analysis. The samples were analyzed from −25° C. to 250° C. at 10° C./min.
Thermogravimetric analyses were performed using a Mettler-Toledo TGA/DSC3+ analyzer. Temperature calibration was performed using calcium oxalate, indium, tin, and zinc. The sample was placed in an aluminum pan. The pan was hermetically sealed, the lid was pierced, and the pan was then inserted into the TG furnace. A weighed aluminum pan configured as the sample pan was placed on the reference platform. The furnace was heated under nitrogen. Samples were analyzed from 25° C. to 350° C. at 10° C./min.

[4] = type: physicochemical
Procedure: XRPD patterns were collected with a PANalytical X'Pert PRO MPD or a PANalytical Empyrean diffractometer using an incident beam of Cu radiation produced using an Optix long, fine-focus source. An elliptically graded multilayer mirror was used to focus Cu Kα X-rays through the specimen and onto the detector. Prior to the analysis, a silicon specimen (NIST SRM 640e) was analyzed to verify the observed position of the Si 111 peak is consistent with the NIST-certified position. A specimen of the sample was sandwiched between 3-μm-thick films and analyzed in transmission geometry. A beam-stop, short antiscatter extension, and antiscatter knife edge were used to minimize the background generated by air. Soller slits for the incident and diffracted beams were used to minimize broadening from axial divergence. Diffraction patterns were collected using a scanning position-sensitive detector (X'Celerator) located 240 mm from the specimen and Data Collector software v. 5.5.

MAM-treated rats = conditions: cited from earlier work
[5] = tested on: Aged-Impaired rats (AI rats); assay: Radial Arm Maze task, 2-hr delay, acute brivaracetam or seletracetam (Example 4); type: in vivo, rat; conditions: doses 0.0625-4 mg/kg i.p., 30-40 min prior to test; repeated measures ANOVA
Text: All rats were screened in a standardized assessment of spatial cognition prior to the studies with experimental treatments. That background assessment used a well-established Morris Water Maze protocol. The MWM protocol was substantially the same as the one described in Example 1. See, also, Gallagher et al., Behav. Neurosci. 107:618-626, (1993). Briefly, the rats were trained for eight days (three trials per day) to locate a camouflaged escape platform that remained at the same location throughout training in a water maze. Every sixth trial consisted of a probe trial (free swim with no escape platform) that served to assess the development of a spatially localized search for the escape platform. During these probe trials, a learning index was generated from the proximity of the rat to the escape platform and was used to define impairment in the aged rats. The learning index is the sum of weighted proximity scores obtained during probe trials, with low scores reflecting a search near the escape platform and high scores reflecting searches farther away from the platform (Gallagher et al, 1993). Cue training (visible escape platform) occurred on the last day of training to test for sensorimotor and motivational factors independent of spatial learning. […]

[6] = tested on: memory-impaired aged rats; assay: Water maze after chronic brivaracetam by osmotic mini-pump (Example 4); type: in vivo, rat; conditions: brivaracetam 2 mg/kg/day by osmotic mini-pump, 14 days, probe test
Procedure: The radial arm maze experiments used acute administration of seletracetam (0-4 mg/kg), brivaracetam (0-4 mg/kg), or saline vehicle given by intraperitoneal injection (in a volume of 1 ml/kg) 30-40 min prior to test sessions.
Rats were trained and tested in a novel water maze environment to assess the effect of drug treatment. The water maze used here was housed in a different building and was surrounded by curtains with a novel set of patterns relative to the maze used for initial assessment of cognitive status. The training protocol consisted of 6 trials per day for 2 days to locate a submerged escape platform. On each trial, a rat was released in the maze from one of four equally spaced starting positions around the perimeter of the pool. The starting position varied from trial to trial. […] The rat was then removed from the platform and placed in a holding cage for another 40 s before the next trial. Approximately 24 hr after the last training trial, a probe test in the absence of the escape platform was given to assess spatial memory.

For `COCc1nnc2n1Cc1c(C#Cc3cnc(OC)s3)ncn1-c1ccc(Cl)cc1-2` [Form A], the hygroscopicity class ([1]; 5% to 95% RH) was “limited hygroscopicity; also recorded: low hygroscopicity”, the “weight change through the sorption/desorption cycle” value ([1]; DVS, 5% to 95% RH) was roughly 0.3% and the “form of the material recovered from the DVS experiment by XRPD” value [1] was “identified as the same as the starting material”. For the same molecule, the “relative thermodynamic stability between crystalline forms” value [2] was “more thermodynamically stable than Form B and Material D at ambient temperature and Form E at ambient temperature, 55° C., and 77 °C” and the “relative thermodynamic stability between crystalline forms” value ([2]; listed as Form A of Compound 1) was “superior stability”.
For `COCc1nnc2n1Cc1c(C#Cc3cnc(OC)s3)ncn1-c1ccc(Cl)cc1-2` [Form B], the “onset of DSC exotherm due to decomposition” value (“onset of DSC exotherm due” for short) [3] was “about 190 °C” and the “relative thermodynamic stability between crystalline forms” value [2] was “metastable relative to Form A”.
In the case of `COCc1nnc2n1Cc1c(C#Cc3cnc(OC)s3)ncn1-c1ccc(Cl)cc1-2` [Form C], the “onset of DSC exotherm due” value [3] is reported as 190 °C, the “stability of the form on ambient storage” value ([4]; 9 weeks under ambient conditions) is reported as “remain unchanged” and the “stability of the form on heating” value ([4]; overnight exposure to 80° C.) is reported as “desolvate to Form B”.
In the case of `COCc1nnc2n1Cc1c(C#Cc3cnc(OC)s3)ncn1-c1ccc(Cl)cc1-2` [Form E], the “relative thermodynamic stability between crystalline forms” value [2] is reported as “metastable relative to Form A”.
With `COCc1nnc2n1Cc1c(C#Cc3cnc(OC)s3)ncn1-c1ccc(Cl)cc1-2` [Form F] the hygroscopicity class ([1]; 5% to 95% RH) was “limited hygroscopicity”, the “weight gain on sorption” value ([1]; DVS, 5-95% RH) was 1.8% and the “weight loss upon desorption” value ([1]; DVS, with significant hysteresis) was 1.5%. The “form of the material recovered from the DVS experiment by XRPD” value [1] was “still Form F”, the “onset of DSC exotherm due” value [3] was “above 120 °C” and the “stability of the form under vacuum” value ([4]; 5 days under vacuum at ambient temperature) was “remain unchanged”.
In the case of `COCc1nnc2n1Cc1c(C#Cc3cnc(OC)s3)ncn1-c1ccc(Cl)cc1-2` [Material D], the “relative thermodynamic stability between crystalline forms” value [2] is reported as “metastable relative to Form A” and the “stability of the form on ambient storage” value ([4]; 7 weeks of ambient storage, mixture with Form A) is reported as “Material D still remained”.
For `C#Cc1ccc2c(c1)C(c1ccccc1F)=N[C@H](C)c1c(C(=O)OCC)ncn1-2` [SH-053-2′F—R—CH3], the “number of spontaneously active DA neurons in the ventral tegmental area (VTA)” value (MAM-treated rats; MAM rats, administered systemically or infused into the ventral HPC) is given as “reduces the number of spontaneously active DA neurons” and the “locomotor response to amphetamine” value (MAM-treated rats; MAM-treated rats) is given as “is reduced”.
For `CCC[C@@H]1CC(=O)N([C@@H](CC)C(N)=O)C1` [brivaracetam, (2S)-2-[(4R)-2-oxo-4-propylpyrrolidin-1-yl]butanamide], the “number of errors in the retention phase after the 2-hr delay” value [5] was “significant effect as a function of dose”, the “time in the target annulus vs vehicle-treated rats” value [6] was “significantly more time in the target annulus” and the “time in the target quadrant vs vehicle-treated rats” value [6] was “significantly more time in the target quadrant”. For the same molecule, the “spatial bias for the target quadrant compared to the other control quadrants” value ([6]; n=3/group) was “significant spatial bias”.
With `CC[C@@H](C(N)=O)N1C[C@H](C=C(F)F)CC1=O` [seletracetam, (2S)-2-[(4S)-4-(2,2-difluoroethenyl)-2-oxopyrrolidin-1-yl]butanamide] the “number of errors in the retention phase after the 2-hr delay” value [5] was “significant effect as a function of dose”.
In the case of `NC1=N[C@H](O)[C@H]2[C@H]3O[C@]4(O)O[C@@H]([C@@H](O)[C@@]2(N1)[C@@H]4O)[C@]3(O)CO` [tetrodotoxin], the “DA neuron population activity” value (MAM-treated rats; rat, in vivo) is given as “completely reversed the elevated DA neuron population activity” and the amphetamine-induced locomotor behavior (MAM-treated rats; rat, in vivo) is given as “normalized the augmented amphetamine-induced locomotor behavior”.
